Test results taken from patent US8012963B2, “3,4-dihydro-2H-benzo[1,4]oxazine and thiazine derivatives as CETP inhibitors” (Janssen Pharmaceutica N.V., priority 2006, dated 2011).
Where “and” joins values, the source holds several entries; their conditions need not be identical. Equal entries are not always repeated.

How the values were obtained:
[1] = molecular target: T1, CETP (Homo sapiens, UniProt P11597); assay: CETP in vitro assay ([3H]CE-HDL transfer, Amersham kit TRKQ7005; modified protocol in human plasma); type: biochemical; settings: multiple values = multiple measurements; for inhibition at 1 µM / % Inhibition @ 1 μM: 1 μM compound
T1 construct: from tissue; host or cells: human plasma from normal volunteers
T1 sequence (P11597 18-493): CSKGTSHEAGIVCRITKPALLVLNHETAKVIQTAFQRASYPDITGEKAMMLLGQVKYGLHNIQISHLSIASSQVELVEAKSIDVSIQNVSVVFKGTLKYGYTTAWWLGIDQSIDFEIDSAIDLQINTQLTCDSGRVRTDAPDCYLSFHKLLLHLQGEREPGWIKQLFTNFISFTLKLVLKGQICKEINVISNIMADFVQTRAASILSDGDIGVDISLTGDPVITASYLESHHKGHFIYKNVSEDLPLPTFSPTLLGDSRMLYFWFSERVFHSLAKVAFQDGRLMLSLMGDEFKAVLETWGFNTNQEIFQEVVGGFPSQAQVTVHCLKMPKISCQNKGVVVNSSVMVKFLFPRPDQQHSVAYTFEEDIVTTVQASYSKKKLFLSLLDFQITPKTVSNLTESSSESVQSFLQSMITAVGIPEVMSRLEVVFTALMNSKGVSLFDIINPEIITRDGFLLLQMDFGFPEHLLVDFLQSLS
Outline: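 Normal-volunteer human plasma was incubated ≥4 hr at 37 °C with approx. 25 μg/ml [3H]CE-HDL and compound in DMSO, with a 4 °C blank for non-specific transfer. HDL was separated by Dextralip/MgCl2 precipitation and centrifugation, then supernatant radioactivity counted. IC50 came from % control versus concentration.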

[2] = tested on: cholesterol-fed hamsters; assay: CETP in vivo assay: lipid parameters in cholesterol-fed hamsters; set-up: species or system hamster; settings: plasma, mean ± SEM
Experimental: To determine the in vivo efficacy of a test compound, hamsters are first fed a moderately high cholesterol diet (Research Diets, D5012801) for two weeks before commencing treatment. The animals are orally gavaged with the vehicle (10% solutol, 5% ethanol, 85% D5W) and test compound for 5 days with the last dose being administered 2 hrs before sacrifice. Plasma is obtained and lipid parameters (HDL-C, LDL-C, Total Cholesterol, Triglycerides) are measured.

[3] = tested on: rabbits; settings: 30 mg/kg; cited from earlier work
[4] = tested on: rabbits; settings: rabbits with severe hypercholesterolemia; cited from earlier work
[5] = clinical studies; cited from earlier work

O[C@@H](CN1c2cccc(-c3cccc(OC(F)(F)F)c3)c2OC[C@@H]1c1cccc(OC(F)(F)C(F)F)c1)C(F)(F)F [Compound 3, 4H-1,4-Benzoxazine-4-ethanol, 2,3-dihydro-3-[3-(1,1,2,2-tetrafluoroethoxy)phenyl]-8-[3-(trifluoromethoxy)phenyl]-α-(trifluoromethyl)-, (3S,αS)—]
inhibition at 1 µM [1]: 91% | IC50 [1]: 26 nM | HDL ([2]; 3 mg/kg oral gavage 5 days): 136 ± 6 mg/dL | HDL-C/LDL Ratio ([2]; 3 mg/kg oral gavage 5 days): 3.7 ± 0.2 | LDL ([2]; 3 mg/kg oral gavage 5 days): 36 ± 3 mg/dL | Total Cholesterol ([2]; 3 mg/kg oral gavage 5 days): 207 ± 7 mg/dL | Triglycerides ([2]; 3 mg/kg oral gavage 5 days): 278 ± 21 mg/dL | HDL ([2]; 10 mg/kg oral gavage 5 days): 158 ± 10 mg/dL | HDL-C/LDL Ratio ([2]; 10 mg/kg oral gavage 5 days): 5.2 ± 0.4 | LDL ([2]; 10 mg/kg oral gavage 5 days): 30 ± 2 mg/dL | Total Cholesterol ([2]; 10 mg/kg oral gavage 5 days): 217 ± 12 mg/dL | Triglycerides ([2]; 10 mg/kg oral gavage 5 days): 282 ± 16 mg/dL | HDL ([2]; 30 mg/kg oral gavage 5 days): 167 ± 5 mg/dL | HDL-C/LDL Ratio ([2]; 30 mg/kg oral gavage 5 days): 6.2 ± 0.3 | LDL ([2]; 30 mg/kg oral gavage 5 days): 27 ± 2 mg/dL | Total Cholesterol ([2]; 30 mg/kg oral gavage 5 days): 226 ± 5 mg/dL | Triglycerides ([2]; 30 mg/kg oral gavage 5 days): 300 ± 36 mg/dL

OC(CN1c2cccc(-c3cccc(OC(F)(F)F)c3)c2OCC1c1ccccc1OC(F)(F)C(F)F)C(F)(F)F (centres unmarked) [Compound 92, 1,1,1-Trifluoro-3-[3-[2-(1,1,2,2-tetrafluoro-ethoxy)-phenyl]-8-(3-trifluoromethoxy-phenyl)-2,3-dihydro-benzo[1,4]oxazin-4-yl]-propan-2-ol]
% Inhibition @ 1 μM [1]: 1%

OC(CN1c2cccc(-c3cccc(OC(F)(F)F)c3)c2OCC1c1ccc(OC(F)(F)C(F)F)cc1)C(F)(F)F (centres unmarked) [Compound 93, 1,1,1-Trifluoro-3-[3-[4-(1,1,2,2-tetrafluoro-ethoxy)-phenyl]-8-(3-trifluoromethoxy-phenyl)-2,3-dihydro-benzo[1,4]oxazin-4-yl]propan-2-ol]
% Inhibition @ 1 μM [1]: 33%

OC(CN1c2cccc(-c3cccc(OC(F)(F)F)c3)c2OCC1c1ccc(OC(F)(F)C(F)F)cc1)C(F)(F)F (centres unmarked) [Compound 94, 1,1,1-Trifluoro-3-[3-[4-(1,1,2,2-tetrafluoro-ethoxy)-phenyl]-8-(3-trifluoromethoxy-phenyl)-2,3-dihydro-benzo[1,4]oxazin-4-yl]propan-2-ol]
% Inhibition @ 1 μM [1]: 11%

OC(CN1c2cccc(-c3cccc(OC(F)(F)F)c3)c2OCC1c1ccccc1)C(F)(F)F (centres unmarked) [Compound 95, 1,1,1-Trifluoro-3-[3-phenyl-8-(3-trifluoromethoxy-phenyl)-2,3-dihydro-benzo[1,4]oxazin-4-yl]-propan-2-ol]
% Inhibition @ 1 μM [1]: 43%

OC(CN1c2cccc(-c3cccc(OC(F)(F)F)c3)c2OCC1c1ccccc1)C(F)(F)F (centres unmarked) [Compound 96, 1,1,1-Trifluoro-3-[3-phenyl-8-(3-trifluoromethoxy-phenyl)-2,3-dihydro-benzo[1,4]oxazin-4-yl]-propan-2-ol]
% Inhibition @ 1 μM [1]: 1%

OC(CN1c2cccc(-c3cccc(OC(F)(F)F)c3)c2OCC1c1ccc(OC(F)(F)F)cc1)C(F)(F)F (centres unmarked) [Compound 97, 1,1,1-Trifluoro-3-[3-(4-trifluoromethoxy-phenyl)-8-(3-trifluoromethoxy-phenyl)-2,3-dihydro-benzo[1,4]oxazin-4-yl]-propan-2-ol]
% Inhibition @ 1 μM [1]: 38%

OC(CN1c2cccc(-c3cccc(OC(F)(F)F)c3)c2OCC1c1ccc(OC(F)(F)F)cc1)C(F)(F)F (centres unmarked) [Compound 98, 1,1,1-Trifluoro-3-[3-(4-trifluoromethoxy-phenyl)-8-(3-trifluoromethoxy-phenyl)-2,3-dihydro-benzo[1,4]oxazin-4-yl]-propan-2-ol]
% Inhibition @ 1 μM [1]: 10%

COc1cccc(C2COc3c(-c4cccc(OC(F)(F)F)c4)cccc3N2CC(O)C(F)(F)F)c1 (centres unmarked) [Compound 99, 1,1,1-Trifluoro-3-[3-(3-methoxy-phenyl)-8-(3-trifluoromethoxy-phenyl)-2,3-dihydro-benzo[1,4]oxazin-4-yl]-propan-2-ol]
% Inhibition @ 1 μM [1]: 29%

COc1cccc(C2COc3c(-c4cccc(OC(F)(F)F)c4)cccc3N2CC(O)C(F)(F)F)c1 (centres unmarked) [Compound 100, 1,1,1-Trifluoro-3-[3-(3-methoxy-phenyl)-8-(3-trifluoromethoxy-phenyl)-2,3-dihydro-benzo[1,4]oxazin-4-yl]-propan-2-ol]
% Inhibition @ 1 μM [1]: 6%

OC(CN1c2cccc(-c3cccc(OC(F)(F)F)c3)c2OCC1c1cccc(Cl)c1)C(F)(F)F (centres unmarked) [Compound 101, 3-[3-(3-Chloro-phenyl)-8-(3-trifluoromethoxy-phenyl)-2,3-dihydro-benzo[1,4]oxazin-4-yl]-1,1,1-trifluoro-propan-2-ol]
% Inhibition @ 1 μM [1]: 61% and 63% | IC50 [1]: 214 nM

OC(CN1c2cccc(-c3cccc(OC(F)(F)F)c3)c2OCC1c1cccc(Cl)c1)C(F)(F)F (centres unmarked) [Compound 102, 3-[3-(3-Chloro-phenyl)-8-(3-trifluoromethoxy-phenyl)-2,3-dihydro-benzo[1,4]oxazin-4-yl]-1,1,1-trifluoro-propan-2-ol]
% Inhibition @ 1 μM [1]: 0%

OC(CN1c2cccc(-c3cccc(OC(F)(F)F)c3)c2OCC1c1cccs1)C(F)(F)F (centres unmarked) [Compound 103, 1,1,1-Trifluoro-3-[3-thiophen-2-yl-8-(3-trifluoromethoxy-phenyl)-2,3-dihydro-benzo[1,4]oxazin-4-yl]-propan-2-ol]
% Inhibition @ 1 μM [1]: 20%

OC(CN1c2cccc(-c3cccc(OC(F)(F)F)c3)c2OCC1c1cccs1)C(F)(F)F (centres unmarked) [Compound 104, 1,1,1-Trifluoro-3-[3-thiophen-2-yl-8-(3-trifluoromethoxy-phenyl)-2,3-dihydro-benzo[1,4]oxazin-4-yl]-propan-2-ol]
% Inhibition @ 1 μM [1]: 0%

OC(CN1c2cccc(-c3cccc(OC(F)(F)F)c3)c2OCC1c1ccoc1)C(F)(F)F (centres unmarked) [Compound 105, 1,1,1-Trifluoro-3-[3-furan-3-yl-8-(3-trifluoromethoxy-phenyl)-2,3-dihydro-benzo[1,4]oxazin-4-yl]-propan-2-ol]
% Inhibition @ 1 μM [1]: 2%

OC(CN1c2cccc(-c3cccc(OC(F)(F)F)c3)c2OCC1c1ccoc1)C(F)(F)F (centres unmarked) [Compound 106, 1,1,1-Trifluoro-3-[3-furan-3-yl-8-(3-trifluoromethoxy-phenyl)-2,3-dihydro-benzo[1,4]oxazin-4-yl]-propan-2-ol]
% Inhibition @ 1 μM [1]: 0%

O[C@@H](CN1c2cccc(-c3cccc(OC(F)(F)F)c3)c2SC[C@@H]1c1cccc(OC(F)(F)C(F)F)c1)C(F)(F)F [Compound 107]
% Inhibition @ 1 μM [1]: 59% and 87% | IC50 [1]: 134 nM and 198 nM

O[C@@H](CN1c2cccc(-c3cccc(OC(F)(F)F)c3)c2SC[C@H]1c1cccc(OC(F)(F)C(F)F)c1)C(F)(F)F [Compound 108]
inhibition at 1 µM [1]: 34% | % Inhibition @ 1 μM [1]: 39% | IC50 [1]: > 2920 nM

CCC(CC)CC1(C(=O)Nc2ccccc2SC(=O)C(C)C)CCCCC1 [JTT-705]
CETP activity [3]: inhibited CETP activity | change of HDL-C [3]: +90% | change of lesion size [3]: −70% | change of non-HDL-C cholesterol [3]: −50% | plasma triglycerides [4]: significant elevations of plasma triglycerides | prevention of lesion development [4]: not efficacious in preventing lesion development | HDL-C [5]: raise HDL-C | LDL-C [5]: modestly lower LDL-C | triglyceride levels [5]: not alter triglyceride levels
